The NIST ThermoML archive (doi:10.1016/j.jct.2006.09.012)
Several values for one entry are separate records, joined by “and”; a condition that tells them apart may be missing. Equal values may be shown once.

Settings: Gas, Buoyancy - hydrostatic balance with magnetic suspension - two sinkers

[He] [helium]
Settings	mass density
273.16 K, 31577 kPa	47.957 kg/m3 and 47.9575 kg/m3
273.16 K, 31578 kPa	47.9581 kg/m3 and 47.9577 kg/m3
273.16 K, 31775 kPa	48.2167 kg/m3
273.16 K, 31776 kPa	48.2177 kg/m3
273.16 K, 31777 kPa	48.2188 kg/m3
273.16 K, 31778 kPa	48.22 kg/m3
273.16 K, 31779 kPa	48.2215 kg/m3
273.16 K, 31780 kPa	48.2235 kg/m3
273.16 K, 31865 kPa	48.3344 kg/m3 and 48.3352 kg/m3
273.16 K, 31866 kPa	48.3358 kg/m3
273.16 K, 31867 kPa	48.3368 kg/m3 and 48.3375 kg/m3
273.16 K, 32210 kPa	48.7873 kg/m3
273.16 K, 32211 kPa	48.788 kg/m3
273.16 K, 32212 kPa	48.7903 kg/m3 and 48.7886 kg/m3
273.16 K, 32213 kPa	48.7913 kg/m3
273.16 K, 37198 kPa	55.185 kg/m3
273.16 K, 37199 kPa	55.1865 kg/m3
273.16 K, 37200 kPa	55.1874 kg/m3
273.16 K, 37201 kPa	55.1885 kg/m3 and 55.1895 kg/m3
273.16 K, 37514 kPa	55.5816 kg/m3
273.16 K, 37515 kPa	55.5829 kg/m3
273.16 K, 37517 kPa	55.5843 kg/m3
273.16 K, 37518 kPa	55.5858 kg/m3
273.16 K, 37520 kPa	55.5878 kg/m3
273.16 K, 37531 kPa	55.6035 kg/m3
273.16 K, 37536 kPa	55.6095 kg/m3
273.16 K, 37537 kPa	55.6109 kg/m3
273.16 K, 37539 kPa	55.6125 kg/m3
273.16 K, 37540 kPa	55.6136 kg/m3
273.16 K, 38114 kPa	56.3321 kg/m3 and 56.3327 kg/m3
273.16 K, 38115 kPa	56.3338 kg/m3
273.16 K, 38116 kPa	56.335 kg/m3 and 56.3346 kg/m3
293.15 K, 980.1 kPa	1.6025 kg/m3
293.15 K, 980.2 kPa	1.6025 kg/m3 and 1.6026 kg/m3
293.15 K, 1731.6 kPa	2.8204 kg/m3 and 2.8205 kg/m3 and 2.8207 kg/m3
293.15 K, 3908.9 kPa	6.3007 kg/m3 [middle of 5 runs]
293.15 K, 4006.9 kPa	6.4542 kg/m3
293.15 K, 4007 kPa	6.4541 kg/m3 and 6.4543 kg/m3 and 6.4542 kg/m3
293.15 K, 7058 kPa	11.2086 kg/m3
293.15 K, 7058.1 kPa	11.2089 kg/m3 and 11.2088 kg/m3
293.15 K, 7058.2 kPa	11.2089 kg/m3
293.15 K, 7881.3 kPa	12.4696 kg/m3
293.15 K, 7881.6 kPa	12.4701 kg/m3
293.15 K, 7882.1 kPa	12.4707 kg/m3
293.15 K, 7882.6 kPa	12.4715 kg/m3
293.15 K, 7883 kPa	12.4722 kg/m3
293.15 K, 10034 kPa	15.7199 kg/m3
293.15 K, 10035 kPa	15.7202 kg/m3 and 15.7205 kg/m3
293.15 K, 11762 kPa	18.2837 kg/m3 [middle of 5 runs]
293.15 K, 14018 kPa	21.5714 kg/m3 [middle of 8 runs]
293.15 K, 16004 kPa	24.4152 kg/m3
293.15 K, 16005 kPa	24.4156 kg/m3 [middle of 4 runs]
293.15 K, 18018 kPa	27.2473 kg/m3 and 27.2468 kg/m3 and 27.2464 kg/m3
293.15 K, 18019 kPa	27.2479 kg/m3 [middle of 5 runs]
293.15 K, 19905 kPa	29.8586 kg/m3 and 29.8588 kg/m3
293.15 K, 19906 kPa	29.8595 kg/m3 and 29.8599 kg/m3 and 29.8592 kg/m3
293.15 K, 24474 kPa	36.0124 kg/m3 [middle of 4 runs]
293.15 K, 24475 kPa	36.0141 kg/m3 and 36.0137 kg/m3
293.15 K, 24476 kPa	36.0152 kg/m3
293.15 K, 25777 kPa	37.7285 kg/m3
293.15 K, 25778 kPa	37.7301 kg/m3 and 37.7298 kg/m3 and 37.7293 kg/m3
293.15 K, 25779 kPa	37.7309 kg/m3
293.15 K, 29507 kPa	42.5361 kg/m3
293.15 K, 29508 kPa	42.5375 kg/m3 and 42.5373 kg/m3
293.15 K, 29509 kPa	42.5383 kg/m3
293.15 K, 29510 kPa	42.5393 kg/m3 and 42.5394 kg/m3
293.15 K, 29511 kPa	42.5405 kg/m3
293.15 K, 31846 kPa	45.4829 kg/m3
293.15 K, 31847 kPa	45.4837 kg/m3
293.15 K, 31848 kPa	45.4862 kg/m3 and 45.4845 kg/m3
293.15 K, 31850 kPa	45.4879 kg/m3
293.15 K, 38003 kPa	52.9909 kg/m3
293.15 K, 38004 kPa	52.9921 kg/m3
293.15 K, 38005 kPa	52.993 kg/m3
293.15 K, 38006 kPa	52.9944 kg/m3
293.15 K, 38007 kPa	52.9958 kg/m3
293.16 K, 10034 kPa	15.7195 kg/m3
323.15 K, 1780.1 kPa	2.6324 kg/m3 and 2.6323 kg/m3 and 2.6322 kg/m3
323.15 K, 1780.2 kPa	2.6323 kg/m3
323.15 K, 3959.1 kPa	5.7989 kg/m3 and 5.7987 kg/m3
323.15 K, 7974.3 kPa	11.4834 kg/m3 and 11.4836 kg/m3
323.15 K, 7974.4 kPa	11.4837 kg/m3 and 11.4836 kg/m3
323.15 K, 11648 kPa	16.5228 kg/m3 [middle of 5 runs]
323.15 K, 15081 kPa	21.0997 kg/m3
323.15 K, 15082 kPa	21.1007 kg/m3 and 21.1001 kg/m3 and 21.1 kg/m3
323.15 K, 19305 kPa	26.565 kg/m3 and 26.5643 kg/m3 and 26.5647 kg/m3
323.15 K, 19306 kPa	26.5662 kg/m3 and 26.5653 kg/m3
323.15 K, 25679 kPa	34.4876 kg/m3 and 34.4883 kg/m3
323.15 K, 25680 kPa	34.4886 kg/m3 and 34.489 kg/m3 and 34.4895 kg/m3
323.15 K, 31795 kPa	41.7513 kg/m3 and 41.752 kg/m3
323.15 K, 31796 kPa	41.7528 kg/m3
323.15 K, 31797 kPa	41.7536 kg/m3 and 41.7543 kg/m3
323.15 K, 37888 kPa	48.6852 kg/m3
323.15 K, 37889 kPa	48.6863 kg/m3
323.15 K, 37890 kPa	48.6876 kg/m3
323.15 K, 37891 kPa	48.6888 kg/m3
323.15 K, 37892 kPa	48.6904 kg/m3
